Numbers after ± are expanded uncertainties. One block for each compound: values may come before it.
Experiments:
[1] = 100 kPa, Liquid, Vibrating tube method
[2] = wn = mass fraction of the nth substance listed; details: 100 kPa, Liquid, Vibrating tube method
[3] = refractive index (Na D-line) (dimensionless); wn = mass fraction of the nth substance listed; details: 100 kPa, Liquid, Standard Abbe refractometry

mass density ([1]; 288.15 K): 1007.94 ± 1 kg/m3
mass density ([1]; 298.15 K): 999.25 ± 1 kg/m3
mass density ([1]; 308.15 K): 990.63 ± 1 kg/m3
Structure (SMILES): CNC=O [N-methylformamide]

mass density ([2]; 288.15 K, w2 = 0): 999 ± 1 kg/m3
Structure (SMILES): O [water] + CNC=O

mass density ([1]; 288.15 K): 1137.8 ± 1 kg/m3
mass density ([1]; 298.15 K): 1129.18 ± 1 kg/m3
mass density ([1]; 308.15 K): 1120.75 ± 1 kg/m3
Structure (SMILES): NC=O [formamide]

mass density ([2]; 288.15 K, w2 = 0): 999 ± 1 kg/m3
Structure (SMILES): O [water] + CN(C)C=O

mass density ([2]; 288.15 K, w1 = 0.2): 1030.04 ± 1 kg/m3
mass density ([2]; 288.15 K, w1 = 0.4): 1058.41 ± 1 kg/m3
mass density ([2]; 288.15 K, w1 = 0.6): 1085.67 ± 1 kg/m3
mass density ([2]; 288.15 K, w1 = 0.8): 1111.83 ± 1 kg/m3
mass density ([2]; 288.15 K, w1 = 1): 1137.8 ± 1 kg/m3
mass density ([2]; 298.15 K, w1 = 0.2): 1025.59 ± 1 kg/m3
mass density ([2]; 298.15 K, w1 = 0.4): 1052.51 ± 1 kg/m3
mass density ([2]; 298.15 K, w1 = 0.6): 1078.6 ± 1 kg/m3
mass density ([2]; 298.15 K, w1 = 0.8): 1103.81 ± 1 kg/m3
mass density ([2]; 298.15 K, w1 = 1): 1129.18 ± 1 kg/m3
mass density ([2]; 308.15 K, w1 = 0.2): 1020.7 ± 1 kg/m3
mass density ([2]; 308.15 K, w1 = 0.4): 1046.35 ± 1 kg/m3
mass density ([2]; 308.15 K, w1 = 0.6): 1071.43 ± 1 kg/m3
mass density ([2]; 308.15 K, w1 = 0.8): 1095.93 ± 1 kg/m3
mass density ([2]; 308.15 K, w1 = 1): 1120.75 ± 1 kg/m3
Structure (SMILES): NC=O [formamide] + O

refractive index ([3]; 288.15 K, w1 = 0.2292): 1.46286 ± 0.00032
refractive index ([3]; 298.15 K, w1 = 0.2331): 1.46096 ± 0.00032
refractive index ([3]; 308.15 K, w1 = 0.2412): 1.45811 ± 0.00032
mass density ([2]; 288.15 K, w1 = 0.2292): 1359.39 ± 1.3 kg/m3
mass density ([2]; 298.15 K, w1 = 0.2331): 1354.37 ± 1.3 kg/m3
mass density ([2]; 308.15 K, w1 = 0.2412): 1354.14 ± 1.3 kg/m3
Structure (SMILES): [Cl-].[Cs+] [cesium chloride] + NC=O

refractive index ([3]; 288.15 K, w1 = 0.0005): 1.43298 ± 0.00032
refractive index ([3]; 298.15 K, w1 = 0.0008): 1.4292 ± 0.00032
refractive index ([3]; 308.15 K, w1 = 0.0016): 1.42658 ± 0.00032
mass density ([2]; 288.15 K, w1 = 0.0005): 961.27 ± 1 kg/m3
mass density ([2]; 298.15 K, w1 = 0.0008): 944.51 ± 1 kg/m3
mass density ([2]; 308.15 K, w1 = 0.0016): 937.54 ± 1 kg/m3
Structure (SMILES): [Cl-].[Cs+] [cesium chloride] + CN(C)C=O

mass density ([2]; 288.15 K, w2 = 0): 999 ± 1 kg/m3
Structure (SMILES): O [water] + NC=O

refractive index ([3]; 288.15 K, w1 = 0.0585): 1.43767 ± 0.00032
refractive index ([3]; 298.15 K, w1 = 0.0599): 1.43465 ± 0.00032
refractive index ([3]; 308.15 K, w1 = 0.062): 1.43161 ± 0.00032
mass density ([2]; 288.15 K, w1 = 0.0585): 1054.35 ± 1.2 kg/m3
mass density ([2]; 298.15 K, w1 = 0.0599): 1046.14 ± 1.2 kg/m3
mass density ([2]; 308.15 K, w1 = 0.062): 1038.58 ± 1.2 kg/m3
Structure (SMILES): [Cl-].[Cs+] [cesium chloride] + CNC=O

mass density ([2]; 288.15 K, w1 = 0.2): 1000.62 ± 1 kg/m3
mass density ([2]; 288.15 K, w1 = 0.4): 1003.56 ± 1 kg/m3
mass density ([2]; 288.15 K, w1 = 0.6): 1001.34 ± 1 kg/m3
mass density ([2]; 288.15 K, w1 = 0.8): 986.63 ± 1 kg/m3
mass density ([2]; 288.15 K, w1 = 1): 953.53 ± 1 kg/m3
mass density ([2]; 298.15 K, w1 = 0.2): 996.32 ± 1 kg/m3
mass density ([2]; 298.15 K, w1 = 0.4): 996.99 ± 1 kg/m3
mass density ([2]; 298.15 K, w1 = 0.6): 992.97 ± 1 kg/m3
mass density ([2]; 298.15 K, w1 = 0.8): 977.38 ± 1 kg/m3
mass density ([2]; 298.15 K, w1 = 1): 943.89 ± 1 kg/m3
mass density ([2]; 308.15 K, w1 = 0.2): 991.45 ± 1 kg/m3
mass density ([2]; 308.15 K, w1 = 0.4): 990 ± 1 kg/m3
mass density ([2]; 308.15 K, w1 = 0.6): 984.33 ± 1 kg/m3
mass density ([2]; 308.15 K, w1 = 0.8): 968.07 ± 1 kg/m3
mass density ([2]; 308.15 K, w1 = 1): 934.39 ± 1 kg/m3
Structure (SMILES): CN(C)C=O [dimethylformamide] + O

mass density ([1]; 288.15 K): 953.53 ± 1 kg/m3
mass density ([1]; 298.15 K): 943.89 ± 1 kg/m3
mass density ([1]; 308.15 K): 934.39 ± 1 kg/m3
Structure (SMILES): CN(C)C=O [dimethylformamide]

mass density ([1]; 288.15 K): 999 ± 1 kg/m3
Structure (SMILES): O [water]

refractive index ([3]; 288.15 K, w1 = 0.646): 1.41803 ± 0.00032
refractive index ([3]; 298.15 K, w1 = 0.6545): 1.41971 ± 0.00032
refractive index ([3]; 308.15 K, w1 = 0.6666): 1.42086 ± 0.00032
mass density ([2]; 288.15 K, w1 = 0.646): 1894.15 ± 1.5 kg/m3
mass density ([2]; 298.15 K, w1 = 0.6545): 1921.87 ± 1.5 kg/m3
mass density ([2]; 308.15 K, w1 = 0.6666): 1947.03 ± 1.6 kg/m3
Structure (SMILES): [Cl-].[Cs+] [cesium chloride] + O

mass density ([2]; 288.15 K, w1 = 0.2): 1010.26 ± 1 kg/m3
mass density ([2]; 288.15 K, w1 = 0.4): 1019.56 ± 1 kg/m3
mass density ([2]; 288.15 K, w1 = 0.6): 1023.57 ± 1 kg/m3
mass density ([2]; 288.15 K, w1 = 0.8): 1019.32 ± 1 kg/m3
mass density ([2]; 288.15 K, w1 = 1): 1007.94 ± 1 kg/m3
mass density ([2]; 298.15 K, w1 = 0.2): 1006.21 ± 1 kg/m3
mass density ([2]; 298.15 K, w1 = 0.4): 1013.7 ± 1 kg/m3
mass density ([2]; 298.15 K, w1 = 0.6): 1016.29 ± 1 kg/m3
mass density ([2]; 298.15 K, w1 = 0.8): 1011.11 ± 1 kg/m3
mass density ([2]; 298.15 K, w1 = 1): 999.25 ± 1 kg/m3
mass density ([2]; 308.15 K, w1 = 0.2): 1001.56 ± 1 kg/m3
mass density ([2]; 308.15 K, w1 = 0.4): 1007.51 ± 1 kg/m3
mass density ([2]; 308.15 K, w1 = 0.6): 1008.9 ± 1 kg/m3
mass density ([2]; 308.15 K, w1 = 0.8): 1003.04 ± 1 kg/m3
mass density ([2]; 308.15 K, w1 = 1): 990.63 ± 1 kg/m3
Structure (SMILES): CNC=O [N-methylformamide] + O

From the NIST ThermoML archive (doi:10.1016/j.jct.2014.05.013)
